Data on two molecules can be found in publication PMC7282811.

Read-outs that look alike come from different tables or passages of the source.

In test [1] the target is T1, dopamine D1 receptor (D1R) (Mus musculus, UniProt Q61616).
T1 construct: gene Drd1; native full-length receptor, endogenous in membranes of STHdh^Q7 mouse striatal cells; part may be in D1R-H3R heteromers
Also on record: species or system STHdh^Q7 or STHdh^Q111 mouse striatal cells; radioligand binding to striatal cell membranes, KD from saturation and competition curves. The settings on record: STHdh^Q111 cell membranes; binder. The procedure: Supplementary file elife-51093-supp1.docx: Supplementary file 1. H3R and D1R binding parameters in STHdh^Q7, STHdh^Q111 cells. Striatal cells were homogenized in 50 mM Tris-HCl buffer and ligand binding was performed with membrane suspension (see materials and methods). Binding parameters from saturation and competition curves were obtained using Grafit software by fitting the binding data to the equation previously deduced (equation (3) in [Gracia et al., 2013]. Data are mean ± SEM of experiments performed per triplicate.

For test [2], the target named is T1, dopamine D1 receptor (D1R). Put plainly: radioligand saturation binding, cell membranes, filtration. The settings on record: labelled compound; STHdh^Q7 cell membranes; 50 mM Tris-HCl pH 7.4, 10 mM MgCl2, 25 °C; nonspecific with 30 µM unlabelled ligand; read-out: binding parameters. The procedure:
radioligand saturation binding, cell membranes, filtration on dopamine D1 receptor (D1R) | membranes were incubated with increasing free concentrations of [^3H]

The target in another test is T2, D1R (Mus musculus, UniProt Q61616).
T2 construct: gene Drd1; native receptor, endogenous in mouse brain tissue membranes
T2 sequence (Q61616 whole entry): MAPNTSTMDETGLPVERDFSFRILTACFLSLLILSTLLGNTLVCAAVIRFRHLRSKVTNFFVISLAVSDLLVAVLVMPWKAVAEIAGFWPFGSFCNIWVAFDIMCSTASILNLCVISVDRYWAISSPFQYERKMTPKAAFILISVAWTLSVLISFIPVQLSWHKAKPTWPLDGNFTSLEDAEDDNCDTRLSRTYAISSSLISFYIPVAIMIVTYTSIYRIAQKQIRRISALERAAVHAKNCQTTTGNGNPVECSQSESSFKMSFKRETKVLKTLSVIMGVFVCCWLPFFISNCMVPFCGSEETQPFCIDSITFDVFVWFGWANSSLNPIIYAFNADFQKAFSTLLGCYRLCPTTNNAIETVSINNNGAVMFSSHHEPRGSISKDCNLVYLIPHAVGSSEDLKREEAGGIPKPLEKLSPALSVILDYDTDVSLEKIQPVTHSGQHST
Nature of the test: tissue or organelle. Details: species or system brain tissue of 8-month-old Hdh^Q7/Q7 or Hdh^Q7/Q111 mice; radioligand binding to mouse brain region membranes, KD from saturation and competition curves. The procedure:
(§1) Supplementary file elife-51093-supp2.docx: Supplementary file 2. H3R and D1R binding parameters in different brain regions from 8-month-old Hdh^Q7/Q7 and Hdh^Q7/Q111 mice. Mouse striatal, cortical or hippocampal tissue were homogenized in 50 mM Tris-HCl buffer and ligand binding was performed with membrane suspension (see online methods). Binding parameters from saturation and competition curves were obtained using Grafit software by fitting the binding data to the equation previously deduced (equation (3) in [Gracia et al., 2013]. Data are mean ± SEM of experiments performed per triplicate (n = 6 Hdh^Q7/Q7 and n = 5 Hdh^Q7/Q111). To test whether D1R-H3R heteromers can indeed be targets for treating HD, we investigated their expression and function in the striatum, cerebral cortex and hippocampus of a widely accepted preclinical model of HD, the heterozygous Hdh^Q7/Q111 mutant knock-in mice, and their wild-type Hdh^Q7/Q7 littermates ([Giralt et al., 2012]; [Puigdellívol et al., 2015]). By PLA we confirmed that both Hdh^Q7/Q7 and Hdh^Q7/Q111 mice display D1R-H3R heteromers at 2 months (mo) (Figure 2—figure supplement 1) and four mo (Figure 2A,B) of age in all brain regions tested. […] Heteromer expression was similar in all brain areas and no differences were observed between genotypes at 4 mo of age (Figure 2B). […] Although at 8 mo of age we detected a partial decrease in striatal D1R expression in Hdh^Q7/Q111 compared with Hdh^Q7/Q7 mice using ligand binding experiments (Supplementary file 2), the loss of heteromer expression is not due to a complete loss of receptor expression since by radioligand binding (Supplementary file 2) and mRNA expression analysis (Supplementary file 3) both receptors continue to be expressed.

In a further test the target is T3, H3R (Mus musculus, UniProt P58406).
T3 construct: gene Hrh3; native receptor, endogenous in mouse brain tissue membranes
T3 sequence (P58406 whole entry): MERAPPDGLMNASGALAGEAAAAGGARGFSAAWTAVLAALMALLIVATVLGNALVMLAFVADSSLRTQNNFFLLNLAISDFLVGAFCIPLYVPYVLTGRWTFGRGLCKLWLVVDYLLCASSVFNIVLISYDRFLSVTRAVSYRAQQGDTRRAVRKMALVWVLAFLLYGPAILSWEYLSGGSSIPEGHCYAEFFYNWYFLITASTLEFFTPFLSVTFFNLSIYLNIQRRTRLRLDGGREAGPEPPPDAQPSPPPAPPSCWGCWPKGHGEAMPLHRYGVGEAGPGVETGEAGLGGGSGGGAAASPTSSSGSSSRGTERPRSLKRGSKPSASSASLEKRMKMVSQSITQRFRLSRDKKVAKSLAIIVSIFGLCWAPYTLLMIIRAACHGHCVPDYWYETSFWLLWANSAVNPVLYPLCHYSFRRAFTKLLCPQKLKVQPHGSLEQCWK
Put plainly: tissue or organelle. Details: species or system brain tissue of 8-month-old Hdh^Q7/Q7 or Hdh^Q7/Q111 mice; radioligand binding to mouse brain region membranes, KD from saturation and competition curves. As to the method: as §1

Setting [3] is: Cortex, 8-month-old Hdh^Q7/Q7 mice.
[4] abbreviates: Hippocampus, 8-month-old Hdh^Q7/Q7 mice.
The mark [5] stands for this setting: Hippocampus, 8-month-old Hdh^Q7/Q111 mice.
[6] abbreviates: Striatum, 8-month-old Hdh^Q7/Q7 mice.
Setting [7] is: Striatum, 8-month-old Hdh^Q7/Q111 mice.

T1 sequence (Q61616 whole entry): as the sequence (Q61616 whole entry) above

Take `CN1CCc2cc(Cl)c(O)cc2[C@@H](c2ccccc2)C1` [[^3H] SCH 23390]: the Kd in test [1] is 0.16 ± 0.08 nM; in test [2], 0.3 ± 0.1 nM; at D1R (setting [3]), 0.05 ± 0.01 nM; on D1R (setting [4]), 0.03 ± 0.02 nM; on D1R (setting [5]), 0.09 ± 0.07 nM; at D1R (setting [6]), 0.17 ± 0.02 nM. At D1R (setting [7]), this molecule yielded a Kd of 0.11 ± 0.01 nM.

As to `C[C@@H](N)Cc1c[nH]cn1` [[^3H] R-α-methyl histamine], the Kd at H3R (setting [3]) was found to be 0.22 ± 0.02 nM; at H3R (Cortex, 8-month-old Hdh^Q7/Q111 mice), 0.24 ± 0.04 nM; at H3R (setting [4]), 0.2 ± 0.01 nM; on H3R (setting [5]), 0.37 ± 0.1 nM; on H3R (setting [6]) it was 0.27 ± 0.03 nM; on H3R (setting [7]), 0.26 ± 0.03 nM.
